In ChEMBL document CHEMBL6121007, “Design, synthesis and evaluation of pyrimidine derivatives as sedative-hypnotic agents” (Eur J Med Chem, 2025):
Activity calls are given as the source filed them. No cut-off for these calls is given here.

What was measured:
Type in all cases: functional, organism-based
[1] = tested on: Mus musculus; test: Sedative-hypnotic activity in mouse assessed as decrease in number of square crossing at 50 mg/kg, ip administrated as single dose and measured after 30 mins by open field test
[2] = tested on: Mus musculus; test: Sedative-hypnotic activity in mouse assessed as reduction in grip strength score at 50 mg/kg, ip administrated as single dose and measured after 30 mins by grip strength test
[3] = tested on: Mus musculus; test: Sedative-hypnotic activity in mouse assessed as increase in latency time of first step out of center square at 5 mg/kg, ip administrated as single dose and measured after 30 mins by open field test

Row | Compound | Activity [1] | Activity [2] | Activity [3]
1 | CCn1c2ccccc2c2cc(Nc3ccnc(Nc4ccc5c(c4)c4ccccc4n5CC)n3)ccc21 | Active | Active | –
2 | CCn1c2ccccc2c2cc(Nc3ccnc(Nc4ccc(C)cc4)n3)ccc21 | Active | Active | –
3 | CCn1c2ccccc2c2cc(Nc3ccnc(Nc4ccc(C(C)C)cc4)n3)ccc21 | Active | Active | –
4 | CCn1c2ccccc2c2cc(Nc3ccnc(Nc4ccc(F)c(C)c4)n3)ccc21 | Active | Active | –
5 | CCn1c2ccccc2c2cc(Nc3nccc(Nc4ccc5sc(C)nc5c4)n3)ccc21 | Active | Active | –
6 | CCc1ccc(Nc2nccc(Nc3ccc4c(c3)c3ccccc3n4CC)n2)cc1 | Active | Active | –
7 | CCn1c2ccccc2c2cc(Nc3ccnc(Nc4ccc(N5CCCCC5)cc4)n3)ccc21 | Active | Active | –
8 | COc1cc(Nc2nccc(Nc3ccc4sc(C)nc4c3)n2)ccc1O | Active | Active | –
9 | CCn1c2ccccc2c2cc(Nc3ccnc(Nc4ccc5[nH]c(C)cc5c4F)n3)ccc21 | Active | Active | –
10 | CCn1c2ccccc2c2cc(Nc3ccnc(Nc4ccc5nc(C)[nH]c5c4)n3)ccc21 | Active | Active | –
11 | CCn1c2ccccc2c2cc(Nc3ccnc(Nc4ccc(CC(C)C)cc4)n3)ccc21 | Active | Active | –
12 | Cc1nc2cc(Nc3ccnc(Nc4ccc(F)c(C)c4)n3)ccc2s1 | Active | Active | –
13 | CCn1c2ccccc2c2cc(Nc3ccnc(Nc4cc(OC)cc(OC)c4)n3)ccc21 | Active | Active | –
14 | CCn1c2ccccc2c2cc(Nc3ccnc(Nc4ccc5sc(C)nc5c4)n3)ccc21 | Active | Active | –
15 | CCn1c2ccccc2c2cc(Nc3ccnc(Nc4cc(C)cc(F)c4)n3)ccc21 | Active | Active | –
16 | COC(=O)c1ccc(Nc2nccc(Nc3ccc4sc(C)nc4c3)n2)cc1OC | inactive | Active | –
17 | Cc1cc2c(F)c(Nc3nccc(Nc4ccc5sc(C)nc5c4)n3)ccc2[nH]1 | Active | Active | –
18 | Cc1nc2ccc(Nc3nccc(Nc4ccc5sc(C)nc5c4)n3)cc2[nH]1 | Active | Active | –
19 | CCn1cc(Nc2nccc(Nc3ccc4c(c3)c3ccccc3n4CC)n2)cn1 | Active | Active | –
20 | Cc1nc2cc(Nc3ccnc(Nc4ccc5c(cnn5C)c4)n3)ccc2s1 | Active | Active | –
21 | CCn1c2ccccc2c2cc(Nc3ccnc(Nc4ccc(C(F)(F)F)cc4)n3)ccc21 | Active | Active | –
22 | Cc1nc2cc(Nc3ccnc(Nc4ccc5sc(C)nc5c4)n3)ccc2s1 | Active | Active | –
23 | CN1C(=O)CN=C(c2ccccc2)c2cc(Cl)ccc21 | – | – | inactive
24 | CCn1c2ccccc2c2cc(Nc3ccnc(Nc4ccc5c(cnn5C)c4)n3)ccc21 | Active | Active | –
25 | CCn1c2ccccc2c2cc(Nc3ccnc(Nc4cnn(C)c4)n3)ccc21 | Active | Active | –
